Reference: paper PMC9849758, “Chemically diverse activity-based probes with unexpected inhibitory mechanisms targeting trypsin-like serine proteases” (Frontiers in Chemistry, 2023)
Where a name gives a salt, the structure may show the parent alone.

Columns and labels:
[1] = target: T1, Neutrophil Elastase (recombinant neutrophil elastase) (Homo sapiens, UniProt P08246); assay: IC50 determination, spectrophotometric protease assay; type: biochemical
T1 construct: purchased Enzo LifeSciences
T1 sequence (P08246 30-267): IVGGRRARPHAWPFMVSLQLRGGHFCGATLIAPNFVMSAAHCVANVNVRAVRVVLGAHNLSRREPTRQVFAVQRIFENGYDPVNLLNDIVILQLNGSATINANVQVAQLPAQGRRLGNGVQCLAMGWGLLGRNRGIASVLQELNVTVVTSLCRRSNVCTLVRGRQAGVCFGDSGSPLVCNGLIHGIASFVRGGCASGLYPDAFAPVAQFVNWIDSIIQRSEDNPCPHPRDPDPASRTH
How it was run: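 IC50 values derive from four-parameter logistic fitting of duplicate measurements. Each protease was run with its substrate at Km, monitoring pNA or AMC release for 30 min at 37°C, after a 10/1/.1 μM range-finding screen.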

Thrombin = target: T2, Thrombin (Homo sapiens, UniProt P00734); assay: Jump dilution, determination of inhibition type; type: biochemical; details: inhibitor at 10 times IC50, 15 min, diluted 10-fold or 100-fold; Rev./Irrev.
T2 construct: purchased R&D
Protocol: The dissociation of the enzyme-inhibitor complex was monitored by substrate hydrolysis over time ([Joossens et al., 2006]).
Because ABPs are designed to be irreversible serine protease inhibitors, the IC50 is exclusively used as a first discriminatory evaluation. When an inhibitor is irreversible, its IC50 value not only depends on the substrate and enzyme concentration but also on the time of incubation with the enzyme before the reaction is started by adding the substrate. […] The progress curve in the presence of an irreversible inhibitor will show final velocities equal to zero (Figure 6C). In contrast, for a reversible inhibitor, progress curves have a non-zero final steady-state velocity (Figure 6A) ([McWhirter, 2021]). To corroborate the inhibitory mechanism of the compounds, jump-dilution assays were performed. These use an inhibitor concentration of 10-fold the IC50 for the incubation, and a posteriori, the reaction mixture is diluted 10-fold or 100-fold before adding the substrate. In the case of an irreversible inhibitor, enzymatic activity is not regained (Figure 6D), whereas, in the case of a reversible compound, a slow release of the inhibitor and a gradual increase of the enzymatic activity rate is observed (Figure 6B) ([Copeland, 2013]; [McWhirter, 2021]). The jump-dilution assays confirmed the behavior described by the progress curves.
2.2.2 Jump dilution results
Supplementary Table 2. Jump dilution of selected alkyne and desthiobiotin probes against a panel of trypsin-like serine proteases. […]
# R R DtBa 3 tryptase Thrombin uPA CatG
32b H Alk Irrev. Irrev. Rev. Irrev. Rev.
45b DtB Irrev. Irrev. Rev. N.D. N.D.
33b Alk Irrev. Irrev. Rev. Irrev. Rev.
46b Cl DtB Irrev. Irrev. Rev. N.D. N.D.
34b H Alk Rev. Rev. Rev. Irrev. Rev.
50b DtB Rev. Rev. Rev. Irrev. Rev.
35b Alk Rev. Rev. Rev. Irrev. Rev.
52b NHCOMe DtB Rev. Rev. Rev. Irrev. Rev.
36b Alk Rev. Rev. Rev. Irrev. Rev.
54b Cl DtB Rev. Rev. Rev. Irrev. Rev.
37b Alk Irrev. Irrev. N.D. Irrev. Irrev.
55b H DtB Irrev. Irrev. N.D. Irrev. Irrev.
38b Alk Irrev. Irrev. N.D. Irrev. Irrev.
56b NHCOMe DtB Irrev. Irrev. N.D. Irrev. Irrev.
39b Alk Irrev. Irrev. N.D. Irrev. Rev.
57b Cl DtB Irrev. Irrev. N.D. Irrev. Rev.
41b H Alk Irrev. Irrev. Irrev. N.D. N.D.
31b Pro-Lys H Alk Irrev. Irrev. Irrev. Irrev. N.D. a Alk: ABP precursor bearing an alkyne; DtB: desthiobiotin probe b Panel of serine proteases abbreviations: urokinase plasminogen activator (uPA), cathepsin G (catG) N.D.: IC50 is greater than 10µM, and jump dilution was not performed
2.2.3 Progress curves and Jump dilution experiments
Kinetic assays were performed in the following manner. The inhibitor was mixed with the substrate, and the buffer solution with the enzyme was added at the time zero. The progress curves show the release of para-nitroaniline (pNA) or 7-amino-4-methyl coumarin (AMC) as a function of time.
To monitor the dissociation of the inhibitor-enzyme, aliquots of the enzyme were incubated at 37 °C without and with the inhibitor at a concentration 10 times higher than its IC 50. The enzyme […]
min, the aliquots were diluted 10-fold or 100-fold into the substrate concentration and assay buffer used for the IC50 determination. The dissociation of the enzyme-inhibitor complex was monitored by substrate hydrolysis over time. Blue lines represent the control where no inhibitor was present. Pink lines represent the assay with inhibitor.

SMILES | IC50 [1] [µM] | Thrombin jump dilution result (Thrombin)
C#CCCCOC(=O)NC(c1ccc(NC(=N)N)cc1)P(=O)(Oc1ccccc1)Oc1ccccc1.O=C(O)C(F)(F)F (centres unmarked) [37b, Pent-4-yn-1-yl ((diphenoxyphosphoryl)(4-guanidinophenyl)methyl)carbamate trifluoroacetate salt] | > 10 | –
CC(=O)Nc1ccc(OP(=O)(Oc2ccc(NC(C)=O)cc2)C(Cc2ccc(NC(=N)N)cc2)NC(=O)OCCCc2cn(CCOCCOCCOCCNC(=O)CCCCC[C@H]3NC(=O)N[C@H]3C)nn2)cc1 (some centres unmarked) [52b] | > 10 | Rev.
C[C@@H]1NC(=O)N[C@@H]1CCCCCC(=O)NCCOCCOCCOCCn1cc(CCCOC(=O)NC(CCCNC(=N)N)P(=O)(Oc2ccc(Cl)cc2)Oc2ccc(Cl)cc2)nn1 (some centres unmarked) [46b] | – | Rev.
C#CCCCOC(=O)NC(CCCNC(=N)N)P(=O)(Oc1ccc(Cl)cc1)Oc1ccc(Cl)cc1 (centres unmarked) [33b] | – | Rev.
C#CCCCOC(=O)NC(Cc1ccc(NC(=N)N)cc1)P(=O)(Oc1ccc(NC(C)=O)cc1)Oc1ccc(NC(C)=O)cc1 (centres unmarked) [35b] | > 10 | Rev.
C#CCCCOC(=O)NC(C1CCN(C(=N)N)CC1)P(=O)(Oc1ccccc1)Oc1ccccc1 (centres unmarked) [41b] | > 10 | Irrev.
C[C@@H]1NC(=O)N[C@@H]1CCCCCC(=O)NCCOCCOCCOCCn1cc(CCCOC(=O)NC(CCCNC(=N)N)P(=O)(Oc2ccccc2)Oc2ccccc2)nn1 (some centres unmarked) [45b] | – | Rev.
C[C@@H]1NC(=O)N[C@@H]1CCCCCC(=O)NCCOCCOCCOCCn1cc(CCCOC(=O)NC(Cc2ccc(NC(=N)N)cc2)P(=O)(Oc2ccc(Cl)cc2)Oc2ccc(Cl)cc2)nn1 (some centres unmarked) [54b] | > 10 | Rev.
C#CCCCOC(=O)NC(Cc1ccc(NC(=N)N)cc1)P(=O)(Oc1ccccc1)Oc1ccccc1 (centres unmarked) [34b] | > 10 | Rev.
C[C@@H]1NC(=O)N[C@@H]1CCCCCC(=O)NCCOCCOCCOCCn1cc(CCCOC(=O)NC(Cc2ccc(NC(=N)N)cc2)P(=O)(Oc2ccccc2)Oc2ccccc2)nn1 (stereo partly drawn) [50b, 3-(1-(18-((4R,5S)-5-methyl-2-oxoimidazolidin-4-yl)-13-oxo-3,6,9-trioxa-12-azaoctadecyl)-1H-1,2,3-triazol-4-yl)propyl (1-(diphenoxyphosphoryl)-2-(4-guanidinophenyl)ethyl)carbamate trifluoroacetate salt] | > 10 | Rev.
C#CCCCOC(=O)NC(Cc1ccc(NC(=N)N)cc1)P(=O)(Oc1ccc(Cl)cc1)Oc1ccc(Cl)cc1 (centres unmarked) [36b] | > 10 | Rev.
C#CCCCOC(=O)NC(CCCNC(=N)N)P(=O)(Oc1ccccc1)Oc1ccccc1 (centres unmarked) [32b] | > 10 | Rev.
